Values quoted from earlier work, collected in US20100130442A1, “Lung Injury Treatment” (priority 2007, published 2010).

Key:
[1] = tested on: lung injury induced by intratracheal LPS in C57BL/6 mice; conditions: spontaneously ventilating C57BL/6 mice
[2] = tested on: mechanical ventilation induced lung injury; conditions: in vivo

Q: With `CCCCCCCCCCCCC/C=C/[C@@H](O)[C@@H](N)COP(=O)(O)O` [Sphingosine-1-Phosphate] as the compound, how does the “lung injury induced by intratracheal LPS” value [1] read?
A: attenuates

Q: What about the “mechanical ventilation induced lung injury” value [2] of the same compound?
A: blocked
